How the values were obtained:
[1] = Compound cytotoxicity, XTT-based colorimetric assay; format: cell-based; conditions: human, uninfected MT2 cells, day 4, XTT
Experimental: Compound cytotoxicity and the corresponding CC50 values were determined using the same protocol as described in the antiviral assay except that uninfected cells were used. Cytotoxicity was assessed on day 4 in uninfected MT2 cells by using a XTT (2,3-bis[2-Methoxy-4-nitro-5-sulfophenyl]-2H-tetrazolium-5-carboxyanilide inner salt)-based colorimetric assay (Sigma-Aldrich, St Louis, Mo.).

[2] = system: recombinant NL4-3 virus (nef section replaced with Renilla luciferase gene) in MT-2 cells; experiment: HIV cell culture assay (antiviral activity, luciferase readout); format: cell-based; conditions: Renilla, NL43, MT-2 cells infected for 4-5 days with recombinant NL4-3 Renilla luciferase virus, serial dilutions of compound
Experimental: HIV cell culture assay—MT-2 cells, 293T cells and the proviral DNA clone of NL4-3 virus were obtained from the NIH AIDS Research and Reference Reagent Program. MT-2 cells were propagated in RPMI 1640 media supplemented with 10% heat inactivated fetal bovine serum (FBS), 100 μg/ml penicillin G and up to 100 units/mL streptomycin. The 293T cells were propagated in DMEM media supplemented with 10% heat inactivated FBS, 100 μg/mL penicillin G and 100 μg/mL streptomycin. A recombinant NL4-3 proviral clone, in which a section of the nef gene was replaced with the Renilla luciferase gene, was used to make the reference virus used in these studies. The recombinant virus was prepared through transfection of the recombinant NL4-3 proviral clone into 293T cells using Transit-293 Transfection Reagent from Mirus Bio LLC (Madison, Wis.). Supernatent was harvested after 2-3 days and the amount of virus present was titered in MT-2 cells using luciferase enzyme activity as a marker by measuring luciferase enzyme activity. Luciferase was quantitated using the EnduRen Live Cell Substrate from Promega (Madison, Wis.). Antiviral activities of compounds toward the recombinant virus were quantified by measuring luciferase activity in MT-2 cells infected for 4-5 days with the recombinant virus in the presence of serial dilutions of the compound.
The 50% effective concentration (EC50) was calculated by using the exponential form of the median effect equation where (Fa)=1/[1+(ED50/drug conc.)^m] (Johnson VA, Byington RT. Infectivity Assay. In Techniques in HIV Research. ed. Aldovini A, Walker BD. 71-76. New York: Stockton Press. 1990). Curve fitting and analysis were performed with ActivityBase XE Runner software version 9.1.0.4 using model 203 (ID Business Solutions, LTD, Guildford, UK).

SMILES	CC50 at 4 day [1] [nM]	EC50 [2] [nM]
Cn1nc(NS(C)(=O)=O)c2c(Cl)ccc(-n3c([C@H](Cc4cc(F)cc(F)c4)NC(=O)Cn4nc(C(F)F)c5c4C(F)(F)[C@@H]4C[C@H]54)nc4cc(-c5cccc(S(C)(=O)=O)c5)ccc4c3=O)c21 (atropisomer, axis not shown; (aR)) [Example 54, N-((S)-1-(3-(4-chloro-1-methyl-3-(methylsulfonamido)-1H-indazol-7-yl)-7-(3-(methylsulfonyl)phenyl)-4-oxo-3,4-dihydroquinazolin-2-yl)-2-(3,5-difluorophenyl)ethyl)-2-((3bS,4aR)-3-(difluoromethyl)-5,5-difluoro-3b,4,4a,5-tetrahydro-1H-cyclopropa[3,4]cyclopenta[1,2-c]pyrazol-1-yl)acetamide]	> 1000	0.21
Cn1nc(NS(C)(=O)=O)c2c(Cl)ccc(-n3c([C@H](Cc4cc(F)cc(F)c4)NC(=O)Cn4nc(C(F)F)c5c4C(F)(F)[C@@H]4C[C@H]54)nc4cc(-c5ccc(Cl)c(C(=O)O)c5)ccc4c3=O)c21 (atropisomer, axis not shown; (aR)) [Example 57]	> 1000	17
COc1ccc(-c2ccc3c(=O)n(-c4ccc(Cl)c5c(NS(C)(=O)=O)nn(C)c45)c([C@H](Cc4cc(F)cc(F)c4)NC(=O)Cn4nc(C(F)F)c5c4C(F)(F)[C@@H]4C[C@H]54)nc3c2)cn1 (atropisomer, axis not shown; (aR)) [Example 58, N-((S)-1-(3-(4-chloro-1-methyl-3-(methylsulfonamido)-1H-indazol-7-yl)-7-(6-methoxypyridin-3-yl)-4-oxo-3,4-dihydroquinazolin-2-yl)-2-(3,5-difluorophenyl)ethyl)-2-((3bS,4aR)-3-(difluoromethyl)-5,5-difluoro-3b,4,4a,5-tetrahydro-1H-cyclopropa[3,4]cyclopenta[1,2-c]pyrazol-1-yl)acetamide]	> 1000	0.34
CC(C)c1ccc(-c2ccc3c(=O)n(-c4ccc(Cl)c5c(NS(C)(=O)=O)nn(C)c45)c([C@H](Cc4cc(F)cc(F)c4)NC(=O)Cn4nc(C(F)F)c5c4C(F)(F)[C@@H]4C[C@H]54)nc3c2)cc1 (atropisomer, axis not shown; (aR)) [Example 59, N-((S)-1-(3-(4-chloro-1-methyl-3-(methylsulfonamido)-1H-indazol-7-yl)-7-(4-isopropylphenyl)-4-oxo-3,4-dihydroquinazolin-2-yl)-2-(3,5-difluorophenyl)ethyl)-2-((3bS,4aR)-3-(difluoromethyl)-5,5-difluoro-3b,4,4a,5-tetrahydro-1H-cyclopropa[3,4]cyclopenta[1,2-c]pyrazol-1-yl)acetamide]	> 1000	5.3
Cc1nn(C)c(C)c1-c1ccc2c(=O)n(-c3ccc(Cl)c4c(NS(C)(=O)=O)nn(C)c34)c([C@H](Cc3cc(F)cc(F)c3)NC(=O)Cn3nc(C(F)F)c4c3C(F)(F)[C@@H]3C[C@H]43)nc2c1 (atropisomer, axis not shown; (aR)) [Example 60, N-((S)-1-(3-(4-chloro-1-methyl-3-(methylsulfonamido)-1H-indazol-7-yl)-4-oxo-7-(1,3,5-trimethyl-1H-pyrazol-4-yl)-3,4-dihydroquinazolin-2-yl)-2-(3,5-difluorophenyl)ethyl)-2-((3bS,4aR)-3-(difluoromethyl)-5,5-difluoro-3b,4,4a,5-tetrahydro-1H-cyclopropa[3,4]cyclopenta[1,2-c]pyrazol-1-yl)acetamide]	> 1000	0.32
CNC(=O)c1ccc(-c2ccc3c(=O)n(-c4ccc(Cl)c5c(NS(C)(=O)=O)nn(C)c45)c([C@H](Cc4cc(F)cc(F)c4)NC(=O)Cn4nc(C(F)F)c5c4C(F)(F)[C@@H]4C[C@H]54)nc3c2)cc1 (atropisomer, axis not shown; (aR)) [Example 62, 4-(3-(4-chloro-1-methyl-3-(methylsulfonamido)-1H-indazol-7-yl)-2-((S)-1-(2-((3bS,4aR)-3-(difluoromethyl)-5,5-difluoro-3b,4,4a,5-tetrahydro-1H-cyclopropa[3,4]cyclopenta[1,2-c]pyrazol-1-yl)acetamido)-2-(3,5-difluorophenyl)ethyl)-4-oxo-3,4-dihydroquinazolin-7-yl)-N-methylbenzamide]	> 1000	0.48
Cn1nc(NS(C)(=O)=O)c2c(Cl)ccc(-n3c([C@H](Cc4cc(F)cc(F)c4)NC(=O)Cn4nc(C(F)F)c5c4C(F)(F)[C@@H]4C[C@H]54)nc4cc(-c5ccc(Cl)cc5Cl)ccc4c3=O)c21 (atropisomer, axis not shown; (aR)) [Example 63, N-((S)-1-(3-(4-chloro-1-methyl-3-(methylsulfonamido)-1H-indazol-7-yl)-7-(2,4-dichlorophenyl)-4-oxo-3,4-dihydroquinazolin-2-yl)-2-(3,5-difluorophenyl)ethyl)-2-((3bS,4aR)-3-(difluoromethyl)-5,5-difluoro-3b,4,4a,5-tetrahydro-1H-cyclopropa[3,4]cyclopenta[1,2-c]pyrazol-1-yl)acetamide]	> 1000	7
Cn1nc(NS(C)(=O)=O)c2c(Cl)ccc(-n3c([C@H](Cc4cc(F)cc(F)c4)NC(=O)Cn4nc(C(F)F)c5c4C(F)(F)[C@@H]4C[C@H]54)nc4cc(-c5cccc(F)c5F)ccc4c3=O)c21 (atropisomer, axis not shown; (aR)) [Example 68, N-((S)-1-(3-(4-chloro-1-methyl-3-(methylsulfonamido)-1H-indazol-7-yl)-7-(2,3-difluorophenyl)-4-oxo-3,4-dihydroquinazolin-2-yl)-2-(3,5-difluorophenyl)ethyl)-2-((3bS,4aR)-3-(difluoromethyl)-5,5-difluoro-3b,4,4a,5-tetrahydro-1H-cyclopropa[3,4]cyclopenta[1,2-c]pyrazol-1-yl)acetamide]	> 1000	0.63
COc1c(F)cc(-c2ccc3c(=O)n(-c4ccc(Cl)c5c(NS(C)(=O)=O)nn(C)c45)c([C@H](Cc4cc(F)cc(F)c4)NC(=O)Cn4nc(C(F)F)c5c4C(F)(F)[C@@H]4C[C@H]54)nc3c2)cc1F (atropisomer, axis not shown; (aR)) [Example 70, N-((S)-1-(3-(4-chloro-1-methyl-3-(methylsulfonamido)-1H-indazol-7-yl)-7-(3,5-difluoro-4-methoxyphenyl)-4-oxo-3,4-dihydroquinazolin-2-yl)-2-(3,5-difluorophenyl)ethyl)-2-((3bS,4aR)-3-(difluoromethyl)-5,5-difluoro-3b,4,4a,5-tetrahydro-1H-cyclopropa[3,4]cyclopenta[1,2-c]pyrazol-1-yl)acetamide]	> 1000	0.92
Cn1nc(NS(C)(=O)=O)c2c(Cl)ccc(-n3c([C@H](Cc4cc(F)cc(F)c4)NC(=O)Cn4nc(C(F)F)c5c4C(F)(F)[C@@H]4C[C@H]54)nc4cc(-c5cccnc5)ccc4c3=O)c21 (atropisomer, axis not shown; (aR)) [Example 71, N-((S)-1-(3-(4-chloro-1-methyl-3-(methylsulfonamido)-1H-indazol-7-yl)-4-oxo-7-(pyridin-3-yl)-3,4-dihydroquinazolin-2-yl)-2-(3,5-difluorophenyl)ethyl)-2-((3bS,4aR)-3-(difluoromethyl)-5,5-difluoro-3b,4,4a,5-tetrahydro-1H-cyclopropa[3,4]cyclopenta[1,2-c]pyrazol-1-yl)acetamide]	> 1000	0.18
Cn1nc(NS(C)(=O)=O)c2c(Cl)ccc(-n3c([C@H](Cc4cc(F)cc(F)c4)NC(=O)Cn4nc(C(F)F)c5c4C(F)(F)[C@@H]4C[C@H]54)nc4cc(-c5ccc(C(=O)O)c(Cl)c5)ccc4c3=O)c21 (atropisomer, axis not shown; (aR)) [Example 75, 2-chloro-4-(3-(4-chloro-1-methyl-3-(methylsulfonamido)-1H-indazol-7-yl)-2-((S)-1-(2-((3bS,4aR)-3-(difluoromethyl)-5,5-difluoro-3b,4,4a,5-tetrahydro-1H-cyclopropa[3,4]cyclopenta[1,2-c]pyrazol-1-yl)acetamido)-2-(3,5-difluorophenyl)ethyl)-4-oxo-3,4-dihydroquinazolin-7-yl)benzoic acid]	> 1000	29
